Laboratory results as given in ChEMBL document CHEMBL1201862, “PubChem BioAssay data set” (2004).
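Assay format: 96-well plates, 48-hour exposure. GI50 is the concentration that inhibits growth by half.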 Calls of active or inactive are those of the source. No stated cut-off is given here; in the data, active = GI50 up to about 1.1 µM and inactive = higher.

Columns and labels:
Test in all cases: NCI anticancer screen, dose series, 48 h
[1] = system: 786-0
[2] = system: A498
[3] = system: A549
[4] = system: CAKI-1
[5] = system: CCRF-CEM
[6] = system: COLO 205
[7] = system: DLD-1
[8] = system: DMS-114
[9] = system: DMS-273
[10] = system: EKVX
[11] = system: HCC 2998
[12] = system: HCT-116
[13] = system: HL-60
[14] = system: HOP-62
[15] = system: HOP-92
[16] = system: HT-29
[17] = system: IGROV-1
[18] = system: K562
[19] = system: KM12
[20] = system: LXFL 529
[21] = system: M14
[22] = system: MOLT-4
[23] = system: Malme-3M
[24] = system: NCI-H226
[25] = system: NCI-H23
[26] = system: NCI-H522
[27] = system: OVCAR-3
[28] = system: OVCAR-4
[29] = system: OVCAR-8
[30] = system: RPMI-8226
[31] = system: RXF 631
[32] = system: SF-268
[33] = system: SF-295
[34] = system: SF-539
[35] = system: SK-MEL-28
[36] = system: SK-MEL-2
[37] = system: SK-OV-3
[38] = system: SN12C
[39] = system: SNB-19
[40] = system: SNB-75
[41] = system: SNB-78
[42] = system: SR
[43] = system: SW-620
[44] = system: TK-10
[45] = system: UACC-257
[46] = system: UACC-62
[47] = system: UO-31
[48] = system: XF498
[49] = system: ACHN
[50] = system: HCT-15
[51] = system: KM-20L2
[52] = system: M19-MEL
[53] = system: NCI-H460
[54] = system: OVCAR-5
[55] = system: RXF 393
[56] = system: SK-MEL-5
[57] = system: U-251
[58] = system: HOP-18
[59] = system: LOX IMVI

## N#CCCN(c1ccc(/C=N/c2cccc([N+](=O)[O-])c2)cc1)S(=O)(=O)c1ccccc1
[1]
  GI50: > 100 µM (inactive)
[2]
  GI50: > 10 µM (inactive)
[3]
  GI50: > 100 µM (inactive)
[4]
  GI50: > 100 µM (inactive)
[5]
  GI50: > 100 µM (inactive)
[6]
  GI50: > 100 µM (inactive)
[7]
  GI50: > 100 µM (inactive)
[8]
  GI50: > 100 µM (inactive)
[9]
  GI50: > 100 µM (inactive)
[10]
  GI50: > 100 µM (inactive)
[11]
  GI50: > 100 µM (inactive)
[12]
  GI50: > 100 µM (inactive)
[13]
  GI50: > 100 µM (inactive)
[14]
  GI50: > 100 µM (inactive)
[15]
  GI50: > 100 µM (inactive)
[16]
  GI50: > 100 µM (inactive)
[17]
  GI50: > 100 µM (inactive)
[18]
  GI50: > 100 µM (inactive)
[19]
  GI50: > 100 µM (inactive)
[20]
  GI50: > 100 µM (inactive)
[21]
  GI50: > 100 µM (inactive)
[22]
  GI50: > 100 µM (inactive)
[23]
  GI50: > 100 µM (inactive)
[24]
  GI50: 56.9 µM (inactive)
[25]
  GI50: > 100 µM (inactive)
[26]
  GI50: > 100 µM (inactive)
[27]
  GI50: > 100 µM (inactive)
[28]
  GI50: > 100 µM (inactive)
[29]
  GI50: > 100 µM (inactive)
[30]
  GI50: > 100 µM (inactive)
[31]
  GI50: > 100 µM (inactive)
[32]
  GI50: > 100 µM (inactive)
[33]
  GI50: > 100 µM (inactive)
[34]
  GI50: > 100 µM (inactive)
[35]
  GI50: > 100 µM (inactive)
[36]
  GI50: > 100 µM (inactive)
[37]
  GI50: > 100 µM (inactive)
[38]
  GI50: > 100 µM (inactive)
[39]
  GI50: > 100 µM (inactive)
[40]
  GI50: 75.2 µM (inactive)
[41]
  GI50: > 100 µM (inactive)
[42]
  GI50: > 100 µM (inactive)
[43]
  GI50: > 100 µM (inactive)
[44]
  GI50: > 100 µM (inactive)
[45]
  GI50: > 100 µM (inactive)
[46]
  GI50: > 100 µM (inactive)
[47]
  GI50: 36.3 µM (inactive)
[48]
  GI50: > 100 µM (inactive)

## COC(=O)C1=C(C(=O)OC)C2(CCCCCC2=O)OC1=O (stereo not drawn)
[1]
  GI50: > 100 µM (inactive)
[2]
  GI50: > 100 µM (inactive)
[3]
  GI50: > 100 µM (inactive)
[49]
  GI50: > 100 µM (inactive)
[4]
  GI50: > 100 µM (inactive)
[5]
  GI50: > 100 µM (inactive)
[6]
  GI50: > 100 µM (inactive)
[8]
  GI50: > 100 µM (inactive)
[9]
  GI50: > 100 µM (inactive)
[10]
  GI50: > 100 µM (inactive)
[11]
  GI50: > 100 µM (inactive)
[12]
  GI50: > 100 µM (inactive)
[50]
  GI50: > 100 µM
[13]
  GI50: > 100 µM (inactive)
[14]
  GI50: > 100 µM (inactive)
[15]
  GI50: > 100 µM (inactive)
[16]
  GI50: > 100 µM (inactive)
[17]
  GI50: > 100 µM (inactive)
[18]
  GI50: > 100 µM (inactive)
[51]
  GI50: > 100 µM (inactive)
[19]
  GI50: > 100 µM (inactive)
[20]
  GI50: > 100 µM (inactive)
[21]
  GI50: > 100 µM (inactive)
[52]
  GI50: > 100 µM (inactive)
[22]
  GI50: > 100 µM (inactive)
[23]
  GI50: > 100 µM (inactive)
[24]
  GI50: > 100 µM (inactive)
[25]
  GI50: > 100 µM (inactive)
[53]
  GI50: > 100 µM (inactive)
[26]
  GI50: > 100 µM (inactive)
[27]
  GI50: > 100 µM (inactive)
[28]
  GI50: > 100 µM (inactive)
[54]
  GI50: > 100 µM (inactive)
[29]
  GI50: > 100 µM (inactive)
[30]
  GI50: > 100 µM (inactive)
[55]
  GI50: > 100 µM (inactive)
[31]
  GI50: > 100 µM (inactive)
[32]
  GI50: > 100 µM (inactive)
[33]
  GI50: > 100 µM (inactive)
[34]
  GI50: > 100 µM (inactive)
[35]
  GI50: > 100 µM (inactive)
[36]
  GI50: > 100 µM (inactive)
[56]
  GI50: > 100 µM (inactive)
[37]
  GI50: > 100 µM (inactive)
[38]
  GI50: > 100 µM (inactive)
[39]
  GI50: > 100 µM (inactive)
[40]
  GI50: > 100 µM (inactive)
[41]
  GI50: > 100 µM (inactive)
[43]
  GI50: > 100 µM (inactive)
[44]
  GI50: > 100 µM (inactive)
[57]
  GI50: > 100 µM (inactive)
[45]
  GI50: > 100 µM (inactive)
[46]
  GI50: > 100 µM (inactive)
[48]
  GI50: > 100 µM (inactive)

## CC(=O)OC1CC2C(C)(C)C(=O)C=C[C@]2(C)C2CCC3(C)C(=CCC3[C@H](CO)C[C@H](O)C(=O)C(C)(C)O)[C@]12C (stereo partly drawn)
[1]
  GI50: 19.7 µM (inactive)
[2]
  GI50: 16.4 µM (inactive)
[3]
  GI50: 24.2 µM (inactive)
[49]
  GI50: 17.3 µM (inactive)
[4]
  GI50: 15.9 µM (inactive)
[5]
  GI50: 17.9 µM (inactive)
[6]
  GI50: 42.1 µM (inactive)
[7]
  GI50: 14.9 µM (inactive)
[8]
  GI50: 33.9 µM (inactive)
[9]
  GI50: 30.9 µM (inactive)
[10]
  GI50: 20.3 µM (inactive)
[11]
  GI50: 18.1 µM (inactive)
[12]
  GI50: 30.3 µM (inactive)
[50]
  GI50: 17.8 µM
[13]
  GI50: 19.5 µM (inactive)
[58]
  GI50: 54.1 µM (inactive)
[16]
  GI50: 13.8 µM (inactive)
[17]
  GI50: 21.5 µM (inactive)
[18]
  GI50: 27 µM (inactive)
[51]
  GI50: 13.6 µM (inactive)
[19]
  GI50: 19.1 µM (inactive)
[59]
  GI50: 18.2 µM (inactive)
[20]
  GI50: 42.4 µM (inactive)
[21]
  GI50: 21.7 µM (inactive)
[52]
  GI50: 35.8 µM (inactive)
[22]
  GI50: 22.6 µM (inactive)
[23]
  GI50: 14.7 µM (inactive)
[24]
  GI50: 20.6 µM (inactive)
[25]
  GI50: > 10 µM (inactive)
[53]
  GI50: 16.6 µM (inactive)
[26]
  GI50: 23.6 µM (inactive)
[27]
  GI50: 19.5 µM (inactive)
[28]
  GI50: 59.8 µM (inactive)
[54]
  GI50: 31 µM (inactive)
[29]
  GI50: 17.3 µM (inactive)
[30]
  GI50: 22.3 µM (inactive)
[55]
  GI50: 16.5 µM (inactive)
[31]
  GI50: 30.5 µM (inactive)
[32]
  GI50: 25.9 µM (inactive)
[33]
  GI50: 12.9 µM (inactive)
[34]
  GI50: 18.7 µM (inactive)
[35]
  GI50: 19.4 µM (inactive)
[36]
  GI50: 20.7 µM (inactive)
[56]
  GI50: 19 µM (inactive)
[37]
  GI50: 13.7 µM (inactive)
[38]
  GI50: 26.4 µM (inactive)
[39]
  GI50: 31.7 µM (inactive)
[40]
  GI50: 24.3 µM (inactive)
[41]
  GI50: 76.4 µM (inactive)
[42]
  GI50: 25.4 µM (inactive)
[43]
  GI50: 21.1 µM (inactive)
[44]
  GI50: 26.5 µM (inactive)
[57]
  GI50: 16.7 µM (inactive)
[45]
  GI50: 14.5 µM (inactive)
[46]
  GI50: 14.2 µM (inactive)
[47]
  GI50: 23.7 µM (inactive)
